According to patent publication US8633245B2, “PAI-1 inhibitor” (Institute of Medicinal Molecular Design, Inc., priority 2008, dated 2014):
Like-named read-outs stand apart in the source and are kept apart here.

Biological target: T1, recombinant human PAI-1 (Homo sapiens, UniProt P05121)
T1 construct: purchased Molecular Innovations, Inc
Experiment: Test Example 2: human PAI-1 inhibitory activity (tPA fluorogenic substrate, pH 7.4 HEPES buffer)
Type: biochemical
Method: 0.1 M HEPES, 0.1 M NaCl. 1 mM EDTA. 0.1% Polyethylene glycol 8,000 (Hampton Research Corporation),
2 mM Dimethyldecylphoshine oxide [Apo-10] (Fluka Corporation)

[1] = read-out: Inhibition Rate of PAI-1 Activity (%)
[2] = human PAI-1, compound concentration 1 μM
[3] = human PAI-1, compound concentration 3 μM
[4] = human PAI-1, compound concentration 10 μM
[5] = human PAI-1, compound concentration 25 μM
[6] = human PAI-1, calculated from the inhibition rates
[7] = human PAI-1, compound concentration 0.1 μM
[8] = human PAI-1, compound concentration 0.3 μM

T1 sequence (P05121 24-402): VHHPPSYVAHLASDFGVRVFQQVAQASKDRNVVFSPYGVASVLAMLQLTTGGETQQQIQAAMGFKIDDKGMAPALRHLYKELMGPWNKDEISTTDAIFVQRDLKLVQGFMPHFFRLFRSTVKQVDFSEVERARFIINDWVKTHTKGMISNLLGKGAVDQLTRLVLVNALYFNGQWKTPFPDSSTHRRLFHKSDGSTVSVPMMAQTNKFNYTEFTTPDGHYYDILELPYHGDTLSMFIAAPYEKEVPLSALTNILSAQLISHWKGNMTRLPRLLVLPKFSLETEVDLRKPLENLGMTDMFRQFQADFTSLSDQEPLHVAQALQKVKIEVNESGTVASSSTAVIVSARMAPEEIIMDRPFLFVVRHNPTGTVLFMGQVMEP

CCCCCCCCCOc1cc(N(Cc2ccc(C(C)(C)C)cc2)C(=O)C(=O)O)ccc1-c1ccc(OC(F)(F)F)cc1 [Compound 388]
IC50: < 100 nM | inhibition at 0.3 µM [1]: > 99% | inhibition at 1 µM [1]: > 99% | inhibition at 3 µM [1]: > 99%

CCCCCOc1cc(-c2cccc(OC(F)(F)F)c2)ccc1N(CCCCc1ccccc1)C(=O)C(=O)O [Compound 393]
IC50: 690 nM

CC(C)(C)c1ccc(N(Cc2ccc(-c3ccccc3)cc2)C(=O)C(=O)O)cc1 [Compound 612]
Inhibition Rate of PAI-1 Activity (%) [2]: 7% | Inhibition Rate of PAI-1 Activity (%) [3]: 25% | Inhibition Rate of PAI-1 Activity (%) [4]: 84% | Inhibition Rate of PAI-1 Activity (%) [5]: >99%

CCCCC(Oc1ccc(-c2cccc(C(F)(F)F)c2)cc1Oc1ccc(C(C)(C)C)cc1)C(=O)O (stereo not drawn) [Compound 320]
IC50 [6]: 740 nM

O=C(O)CCc1ccc(-c2ccc(OC(F)(F)F)cc2)cc1Oc1ccc(OC(F)(F)F)cc1 [Compound 479]
Inhibition Rate of PAI-1 Activity (%) [7]: 17% | Inhibition Rate of PAI-1 Activity (%) [8]: 14% | Inhibition Rate of PAI-1 Activity (%) [2]: 70% | Inhibition Rate of PAI-1 Activity (%) [3]: >99%

CCCCCCCOc1ccc(N(CCCCc2ccccc2)C(=O)C(=O)O)cc1-c1ccc(OC(F)(F)F)cc1 [Compound 394]
IC50: 220 nM | inhibition at 3 µM [1]: > 99%

CC(C)(C)c1ccc(Oc2cc(Nc3ccc(OC(F)(F)F)cc3)ccc2OCC(=O)O)cc1 [Compound 536]
Inhibition Rate of PAI-1 Activity (%) [7]: 1% | Inhibition Rate of PAI-1 Activity (%) [8]: 12% | Inhibition Rate of PAI-1 Activity (%) [2]: 87% | Inhibition Rate of PAI-1 Activity (%) [3]: >99%

CCCCCOc1ccc(-c2ccc(F)cc2)cc1N(CCCCc1ccccc1)C(=O)C(=O)O [Compound 359]
IC50: 1640 nM

CCCCOc1ccc(-c2ccc(OCC(=O)O)c(Oc3ccc(C(C)(C)C)cc3)c2)cc1 [Compound 468]
Inhibition Rate of PAI-1 Activity (%) [7]: 1% | Inhibition Rate of PAI-1 Activity (%) [8]: 5% | Inhibition Rate of PAI-1 Activity (%) [2]: 86% | Inhibition Rate of PAI-1 Activity (%) [3]: 97%

CC(C)(C)c1ccc(Oc2cc(-c3ccc(OC(F)(F)F)cc3)ccc2N(CCCCc2ccccc2)C(=O)C(=O)O)cc1 [Compound 635]
Inhibition Rate of PAI-1 Activity (%) [7]: 14% | Inhibition Rate of PAI-1 Activity (%) [8]: 30% | Inhibition Rate of PAI-1 Activity (%) [2]: 45% | Inhibition Rate of PAI-1 Activity (%) [3]: 91%

CC(C)(C)c1ccc(Oc2cc(-c3ccc(C(C)(C)C)cc3)ccc2CCC(=O)O)cc1 [Compound 497]
Inhibition Rate of PAI-1 Activity (%) [7]: 3% | Inhibition Rate of PAI-1 Activity (%) [8]: 24% | Inhibition Rate of PAI-1 Activity (%) [2]: >99% | Inhibition Rate of PAI-1 Activity (%) [3]: >99%

CC(C)(C)c1cccc(Oc2cc(-c3ccc(OC(F)(F)F)cc3)ccc2/C=C/C(=O)O)c1 [Compound 335]
IC50 [6]: 740 nM | inhibition at 3 µM [1]: > 99%

CCC(CC)Oc1ccc(-c2ccc(/C=C/C(=O)O)c(Oc3ccc(C(C)(C)C)cc3)c2)cc1 [Compound 521]
Inhibition Rate of PAI-1 Activity (%) [7]: 25% | Inhibition Rate of PAI-1 Activity (%) [8]: 82% | Inhibition Rate of PAI-1 Activity (%) [2]: >99% | Inhibition Rate of PAI-1 Activity (%) [3]: >99%

CC(C)Oc1ccc(-c2ccc(OCC(=O)O)c(Oc3ccc(C(C)(C)C)cc3)c2)cc1 [Compound 460]
Inhibition Rate of PAI-1 Activity (%) [7]: 1% | Inhibition Rate of PAI-1 Activity (%) [8]: 8% | Inhibition Rate of PAI-1 Activity (%) [2]: 63% | Inhibition Rate of PAI-1 Activity (%) [3]: >99%

CCCCCOc1ccc(-c2ccc(OC(F)(F)F)cc2)cc1N(CCCCOc1ccccc1)C(=O)C(=O)O [Compound 374]
IC50: 880 nM | inhibition at 3 µM [1]: > 99%

CCCCCCCOc1ccc(-c2ccc(OC(F)(F)F)cc2)cc1N(CCCCc1ccccc1)C(=O)C(=O)O [Compound 371]
IC50 (concentration that inhibits 50% of the human PAI-1 activity, calculated from Test Example 2 inhibition rates): 690 nM | Inhibition Rate of PAI-1 Activity (%) [7]: 10% | Inhibition Rate of PAI-1 Activity (%) [8]: 17% | Inhibition Rate of PAI-1 Activity (%) [2]: 93% | Inhibition Rate of PAI-1 Activity (%) [3]: 91%

O=C(O)C(=O)N(CCCCc1ccccc1)c1cc(-c2ccc(OC(F)(F)F)cc2)ccc1OCCCC1CCCCC1 [Compound 656]
Inhibition Rate of PAI-1 Activity (%) [7]: 24% | Inhibition Rate of PAI-1 Activity (%) [8]: 64% | Inhibition Rate of PAI-1 Activity (%) [2]: 95% | Inhibition Rate of PAI-1 Activity (%) [3]: 88%

O=C(O)/C=C/c1ccc(-c2ccc(OC(F)(F)F)cc2)cc1OC(c1ccccc1)c1ccccc1 [Compound 506]
Inhibition Rate of PAI-1 Activity (%) [7]: 2% | Inhibition Rate of PAI-1 Activity (%) [8]: 9% | Inhibition Rate of PAI-1 Activity (%) [2]: 78% | Inhibition Rate of PAI-1 Activity (%) [3]: >99%

Cc1ccc(-c2ccc(OCC(=O)O)c(Oc3ccc(C(C)(C)C)cc3)c2)cc1 [Compound 444]
Inhibition Rate of PAI-1 Activity (%) [7]: 0% | Inhibition Rate of PAI-1 Activity (%) [8]: 0% | Inhibition Rate of PAI-1 Activity (%) [2]: 11% | Inhibition Rate of PAI-1 Activity (%) [3]: 96%

CCCCCOc1ccc(-c2cc(C)cc(C)c2)cc1N(CCCCc1ccccc1)C(=O)C(=O)O [Compound 672]
Inhibition Rate of PAI-1 Activity (%) [7]: 3% | Inhibition Rate of PAI-1 Activity (%) [8]: 15% | Inhibition Rate of PAI-1 Activity (%) [2]: 92% | Inhibition Rate of PAI-1 Activity (%) [3]: >99%

O=C(O)C(=O)N(CCCCc1ccccc1)c1cc(-c2ccc(OC(F)(F)F)cc2)ccc1OCCCCCO [Compound 676]
Inhibition Rate of PAI-1 Activity (%) [7]: 7% | Inhibition Rate of PAI-1 Activity (%) [8]: 4% | Inhibition Rate of PAI-1 Activity (%) [2]: 60% | Inhibition Rate of PAI-1 Activity (%) [3]: >99%

CCC(CC)Oc1ccc(-c2ccc(CCC(=O)O)c(Oc3ccc(C(C)(C)C)cc3)c2)cc1 [Compound 522]
Inhibition Rate of PAI-1 Activity (%) [7]: 33% | Inhibition Rate of PAI-1 Activity (%) [8]: 71% | Inhibition Rate of PAI-1 Activity (%) [2]: 98% | Inhibition Rate of PAI-1 Activity (%) [3]: 98%

CCCCCCC(Oc1cc(-c2ccc(OC(F)(F)F)cc2)ccc1Oc1ccc(C(C)(C)C)cc1)C(=O)O (stereo not drawn) [Compound 323]
IC50 [6]: 490 nM

O=C(O)C(=O)N(Cc1ccc(-c2ccc(OC(F)(F)F)cc2)cc1)c1ccccc1 [Compound 611]
Inhibition Rate of PAI-1 Activity (%) [2]: 5% | Inhibition Rate of PAI-1 Activity (%) [3]: 13% | Inhibition Rate of PAI-1 Activity (%) [4]: 45% | Inhibition Rate of PAI-1 Activity (%) [5]: 81%

CCCCC(Oc1cc(Oc2ccc(OC(F)(F)F)cc2)ccc1Oc1ccc(C(C)(C)C)cc1)C(=O)O (stereo not drawn) [Compound 312]
IC50 [6]: 530 nM

CCCCC(Oc1ccc(-c2ccc(OC(F)(F)F)cc2)cc1OCc1ccc(C(C)(C)C)cc1)C(=O)O (stereo not drawn) [Compound 310]
IC50 [6]: 710 nM

O=C(O)C(=O)N(CCCCc1ccccc1)c1cc(-c2ccc(OC(F)(F)F)cc2)ccc1OCCCCC(F)(F)F [Compound 381]
IC50: 1040 nM | inhibition at 3 µM [1]: > 99%

CCCCCOc1ccc(-c2ccc(C(F)(F)F)cc2)cc1N(CCCCc1ccccc1)C(=O)C(=O)O [Compound 390]
IC50: 650 nM

CC(C)(C)c1ccc(Oc2cc(-c3cccc(C(F)(F)F)c3)ccc2CCC(=O)O)cc1 [Compound 332]
IC50 [6]: 1470 nM | inhibition at 3 µM [1]: > 99%

CC(C)(C)c1ccc(Oc2cc(-c3cccc(OC(F)(F)F)c3)ccc2CCC(=O)O)cc1 [Compound 504]
Inhibition Rate of PAI-1 Activity (%) [7]: 13% | Inhibition Rate of PAI-1 Activity (%) [8]: 26% | Inhibition Rate of PAI-1 Activity (%) [2]: 91% | Inhibition Rate of PAI-1 Activity (%) [3]: >99%

CC(C)(C)c1ccc(Oc2cc(-c3cccc(OC(F)(F)F)c3)ccc2/C=C/C(=O)O)cc1 [Compound 503]
Inhibition Rate of PAI-1 Activity (%) [7]: 13% | Inhibition Rate of PAI-1 Activity (%) [8]: 27% | Inhibition Rate of PAI-1 Activity (%) [2]: 97% | Inhibition Rate of PAI-1 Activity (%) [3]: 93%

CCCCCOc1cc(-c2ccc(OC(F)(F)F)cc2)cc(N(CCCCc2ccccc2)C(=O)C(=O)O)c1OCCCCC [Compound 372]
IC50: 460 nM

CCCCCOc1ccc(-c2ccc(OC(F)(F)F)cc2)cc1N(CCCOc1ccccc1)C(=O)C(=O)O [Compound 356]
IC50 [6]: 930 nM | inhibition at 3 µM [1]: > 99%

CCCCC(Oc1cc(-c2ccc(OC(F)(F)F)cc2)ccc1OCCCCc1ccc(Cl)cc1)C(=O)O (stereo not drawn) [Compound 325]
IC50 [6]: 580 nM

O=C(O)C(=O)N(Cc1ccc2ccccc2c1)c1ccc(-c2ccc(OC(F)(F)F)cc2)cc1 [Compound 661]
Inhibition Rate of PAI-1 Activity (%) [7]: 6% | Inhibition Rate of PAI-1 Activity (%) [8]: 11% | Inhibition Rate of PAI-1 Activity (%) [2]: 27% | Inhibition Rate of PAI-1 Activity (%) [3]: >99%

CCCCOc1ccc(Oc2cc(-c3ccc(OC(F)(F)F)cc3)ccc2OCC(=O)O)cc1 [Compound 523]
Inhibition Rate of PAI-1 Activity (%) [7]: 11% | Inhibition Rate of PAI-1 Activity (%) [8]: 15% | Inhibition Rate of PAI-1 Activity (%) [2]: 78% | Inhibition Rate of PAI-1 Activity (%) [3]: >99%

CCCCCOc1ccc(-c2ccc(C(C)C)cc2)cc1N(CCCCc1ccccc1)C(=O)C(=O)O [Compound 678]
Inhibition Rate of PAI-1 Activity (%) [7]: 19% | Inhibition Rate of PAI-1 Activity (%) [8]: 33% | Inhibition Rate of PAI-1 Activity (%) [2]: 97% | Inhibition Rate of PAI-1 Activity (%) [3]: 94%

CCCCOc1cccc(Oc2cc(-c3ccc(OC(F)(F)F)cc3)ccc2CCC(=O)O)c1 [Compound 472]
Inhibition Rate of PAI-1 Activity (%) [7]: 15% | Inhibition Rate of PAI-1 Activity (%) [8]: 14% | Inhibition Rate of PAI-1 Activity (%) [2]: 71% | Inhibition Rate of PAI-1 Activity (%) [3]: >99%

CCCCCOc1cc(-c2cccc(C(F)(F)F)c2)ccc1N(CCCCc1ccccc1)C(=O)C(=O)O [Compound 377]
IC50: 480 nM

CCCCCOc1ccc(-c2ccc(OCC(=O)O)c(Oc3ccc(C(C)(C)C)cc3)c2)cc1 [Compound 440]
Inhibition Rate of PAI-1 Activity (%) [7]: 0% | Inhibition Rate of PAI-1 Activity (%) [8]: 3% | Inhibition Rate of PAI-1 Activity (%) [2]: 96% | Inhibition Rate of PAI-1 Activity (%) [3]: >99%

CCCCCOc1cc(-c2ccc(C(F)(F)F)cc2)ccc1N(CCCCc1ccccc1)C(=O)C(=O)O [Compound 392]
IC50: 710 nM | inhibition at 3 µM [1]: > 99%

CCCCCCCCOc1ccc(-c2ccc(OC(F)(F)F)cc2)cc1N(CCCCc1ccccc1)C(=O)C(=O)O [Compound 653]
Inhibition Rate of PAI-1 Activity (%) [7]: 43% | Inhibition Rate of PAI-1 Activity (%) [8]: 95% | Inhibition Rate of PAI-1 Activity (%) [2]: >99% | Inhibition Rate of PAI-1 Activity (%) [3]: >99%

CC(Oc1cc(-c2ccc(OC(F)(F)F)cc2)ccc1/C=C/C(=O)O)c1ccccc1 (stereo not drawn) [Compound 500]
Inhibition Rate of PAI-1 Activity (%) [7]: 19% | Inhibition Rate of PAI-1 Activity (%) [8]: 14% | Inhibition Rate of PAI-1 Activity (%) [2]: 25% | Inhibition Rate of PAI-1 Activity (%) [3]: 80%
